The source of these data is patent US20040214803A1, “Use of vitamin d3 analogue for the treatment of autoimmune diabetes” (priority 2001, published 2004).

One assay deals with NOD mice. The assay is described as follows: Type 1 DM development in NOD mice (blood glucose monitoring). To be noted: NOD female mice, 0.03 μg/Kg per os. It is filed as in vivo, mouse. Here is the method: The non-obese (NOD)/Lt mice used for the experiments were purchased from Charles River Laboratories (Calco, Italy). All mice were kept under specific pathogen-free conditions. Glucose levels in the tail venous blood were quantified using a EUROFlash (Lifescan, Issy les Moulineaux, France). A diagnosis of diabetes was after two sequential glucose measurements higher than 200 mg/dl.
1,25-dihydroxy-16,23Z-diene-26,27-hexafluoro-19-nor vitamin D3, was dissolved in ethanol (1 mg/ml) and then diluted in miglyol 812. NOD/Lt. The mice were dosed orally with vehicle (miglyol 812) alone or vehicle containing Compound A (0,03 μg/Kg body weight) 5×/week from 8 to 12 or from 8 to 16 weeks of age.
NOD female mice were treated […] with Compound A (0.03 μg/Kg body weight per os) or vehicle from 8 to 12 or 16 weeks of age and glycemia levels were monitored until 38 weeks of age. […] About 90% of vehicle-treated controls were diabetic by 38 weeks of age compared to only 50% of mice treated with Compound A from 8 to 12 weeks of age. A longer treatment, from 8 to 16 weeks of age, afforded higher protection, and only 16% of NOD mice developed type 1 DM.
FIG. 1. (page 1/9) Compound A administration to 8-week-old NOD mice inhibits type 1 DM development. NOD mice were treated 5×/week with vehicle (open circles) or with 0.03 μg/Kg Compound A p.o. (filled circles) from 8 to 16 weeks of age, or from 8 to 12 weeks of age (filled squares). Type 1 DM development was monitored twice weekly by measurement of blood glucose levels. The P values were calculated by Mann-Whitney U test.

A further assay concerns IFN-γ. The assay is described as follows: LPS-induced IFN-γ production in vivo (serum ELISA). Further details: species or system mouse. As to conditions: 0.03 μg/Kg per os 72, 48, 24, 1 h before LPS; serum 3 h post LPS. Here is the method:
Lymphokine production was induced in 8 week-old female NOD mice by i.p. injection of 400 μg/mouse Salmonella abortus equi LPS (Sigma). Compound A was administered 72, 48, 24, and 1 h prior to LPS. Blood samples were collected 3 h post LPS injection and serum cytokines measured by ELISA.
Cytokines were quantified by two-sites ELISA. IFN-γ was determined using paired mAb from PharMingen (San Diego, Calif.). For capture, the mAb was AN-18.17.24. Samples were titrated and incubated overnight at 4° C. To detect bound IFN-γ plates were then incubated with biotinylated XMG1.2 mAb. […] The plates were washed again and incubated with the developing substrate p-nitrophenylphosphate disodium (Sigma) in diethanolamine buffer (pH 9.6; 100 μl/well). The reaction was stopped by adding 50 μl/well NaOH 3N, and absorbance was read at 405 nm. ELISA for IL-12p75 was performed as described (Gately, M. K., et al., Current Protocols Immunol. 1995, 3, 15:6.16.11-16.16.15). Cytokines were quantified from two to three titration points using standard curves generated by purified recombinant mouse cytokines and results expressed as cytokine concentration in ng or pg/ml. Detection limits were 15 pg/ml for both cytokines. […]
FIG. 3. […] IFN-γ, IL-12p75 and serum calcium levels were quantified 3 h post LPS injection. […] The P values were calculated by Mann-Whitney U test (* indicates P<0.05 vs. vehicle-treated NOD mice).

For the compound `C[C@H](C/C=C\C(O)(C(F)(F)F)C(F)(F)F)C1=CC[C@H]2/C(=C/C=C3C[C@@H](O)C[C@H](O)C3)CCC[C@]12C` [Compound A, 1,25-dihydroxy-16,23Z-diene-26,27-hexafluoro-19-nor vitamin D3], the “incidence of disease compared to controls” value with NOD mice (from 8 to 12 or 16 weeks of age) was “significantly lower”. Besides, in the assay with NOD mice (treated from 8 to 12 weeks of age, vehicle controls about 90%), the “diabetic by 38 weeks of age” value turned out to be 50%. The “developed type 1 DM (by 38 weeks of age)” value with NOD mice (treated from 8 to 16 weeks of age, vehicle controls about 90%) came to 16%. Besides, the “LPS-induced IFN-γ production” value with IFN-γ was “inhibited significantly”.
